Data on 2 substances can be found in patent US20130195926A1, “MODULATION OF NITRIC OXIDE SIGNALING TO NORMALIZE TUMOR VASCULATURE” (The General Hospital Corporation, priority 2007, published 2013).

The subject of one data set is U87 tumors. Put plainly: Pimonidazole hypoxia staining and vessel density in U87 tumors grown in the hind leg. The class given is in vivo, mice. The following applies: for positive staining for hypoxia (Hypoxyprobe-1 adducts): subcutaneous hind leg tumors ~100 mm3, Rag-1-/- mice; for vessel density: subcutaneous hind leg tumors, compared to U87MG tumors. As to the method: To evaluate tumor hypoxia, a hypoxia marker pimonidazole was used (Winkler, F., et al. 2004 Cancer Cell 6, 553-563). Briefly, when tumors grown in the hindleg reached about 100 mm^3, 60 mg/kg pimonidazole was injected i.v. into the mice bearing subcutaneous tumors (100 mm^3) 1 hr before perfusion fixation following biotinylated lectin injection. Blood vessels were stained with a Alexa 488-conjugated streptavidin (Vector Laboratory). Pimonidazole-adducts in hypoxic cells were detected using Hypoxyprobe-1 kit (Millipore) stained with tetramethylrhodamine isothiocyanate (TRITC)-conjugated goat antibody to mouse IgG. Cell nuclei were counter-stained by 4,6-diamidino-2-phenylindole (DAPI). Fluorescent images were taken using confocal laser-scanning microscopy, and vessel density and the pimonidazole-positive hypoxic area were determined using NIH image 1.63 macro (Winkler, F., et al. 2004 Cancer Cell 6, 553-563).
The macro identified TRITC-pimonidazole positive area and Alexa 488-positive perfused vessel area and binarized them at the same threshold. The percent of pimonidazole positive area to the total area was determined, and then the number and the perimeters of the binarized vascular areas were quantified on image J software. These parameters were determined in three-five photographic areas from each tumor (630×630 μm^2 each).
The extent of hypoxia was determined in U87MG, U87-shRNA58, and U87-shRNA150 tumors utilizing a redox marker pimonidazole (Hypoxyprobe™-1 Kit, Millipore). To determine the level of hypoxia during a commonly used experimental radiation treatment, tumors were grown to ˜100 mm^3 subcutaneously in the hind leg of Rag-1^−/− mice. […] In nNOS silenced U87-shRNA58 tumors (U87-shRNA58 and U87-shRNA150), most of tumor cells have blood vessels in close proximity, and positive staining for hypoxia was hardly seen (FIG. 9A). In agreement with previous intravital observations in the cranium, increased vessel density was found in U87-shRNA58 and U87-shRNA150 tumors, as compared to U87MG tumors (FIG. 9B-C). Improved vascular morphology and function induced by the selective vascular localization of NO alleviate tumor tissue hypoxia (FIG. 9D). A reduction in hypoxia inducible factor-1α (HIF-1α) protein levels was also observed in the U87-shRNA58 and U87-shRNA150 tumors, as compared to U87MG tumors (FIG. 9E).

The next data set deals with U87 gliomas. Put plainly: NO distribution in U87 gliomas by DAF-2T fluorescence (MPLSM). The class given is in vivo, mice. The following applies: U87 tumor with shRNA58 vs parental U87, cranial window, Rag-1-/- mice. As for the experimental part:
FIGS. 3A-B show microfluorographs depicting NO distribution in U87 gliomas grown in the cranial window in Rag-1^−/−. NO production was visualized by means of DAF-2T fluorescence 0, 20, 40 and 60 min after DAF-2 (0.5 mg/body) injection. Left column, micro-angiography with tetramethylrhodamine-dextran (2000 kDa). Middle column, representative DAF-2T microfluorography captured 60 min after the loading of DAF-2 in tumors. Right column, pseudocolor representation of DAF-2T microfluorographs. […] Bars indicate 100 μm. (A) NO distribution in parental U87MG (top row) or nNOS shRNA58-transfected-U87 (bottom row) tumors. […]
Vascular parameters such as functional vessel density (the total length of perfused microvessels per unit area) and vessel diameter were analyzed by tracing each vessel segment using NIH image 1.63 as described elsewhere (Kashiwagi, S., et al. 2005 J. Clin. Invest. 115, 1816-1827). Tissue distribution of NO was visualized using MPLSM and the NO-sensitive fluorescence probe 4,5-diaminofluorescein (DAF-2) (0.5 mg i.v. Daiichi Pure Chemicals Co. Ltd) as described previously (Kashiwagi, S., et al. 2005 J. Clin. Invest. 115, 1816-1827). NO converts DAF-2 to 4,5-diaminofluorescein triazolium (DAF-2T) increasing fluorescence by a factor of 200. The DAF-2 associated fluorescence images were captured 60 min after i.v. injection. […]

Turning to “shRNA150: short-hairpin RNA for nNOS, GGTCTATCCAATGTCCACA (sense), TGTGGACATTGGATAGACCTT (antisense), in pSilencer 3.1 H-1-hygro”, in the data set with U87 tumors, the “positive staining for hypoxia (Hypoxyprobe-1 adducts)” value is recorded as “hardly seen” and the vessel density result is “increased”.
Consider “shRNA58: short-hairpin RNA for nNOS, CAAAGAGATCGACACCATC (sense), GATGGTGTCGATCTCTTTGTT (antisense), in pSilencer 3.1 H-1-hygro, stably transfected into U87MG”, for which, in the data set with U87 tumors, the “positive staining for hypoxia (Hypoxyprobe-1 adducts)” value is “hardly seen” and the vessel density entry is recorded as “increased”. Besides, the “DAF-associated fluorescence (NO distribution)” value in the data set with U87 gliomas is listed as “predominantly localized in vascular region”.
